From ChEMBL document CHEMBL3596167, “Branched -d-mannopyranosides: a new class of potent FimH antagonists” (Medchemcomm, 2014) come the findings set out here.

Data set [1] can be described thus: Solubility of the compound in DMSO at 10 uM. The format is physicochemical.
For data set [2], the target named is Type 1 fimbrin D-mannose specific adhesin (Escherichia coli K-12) (UniProt P08191). In words: Displacement of TM-PAA polymer from Escherichia coli FimH-CRD-Th-6-His expressed in Escherichia coli HM125 by competitive binding assay relative to heptyl alpha-D-mannopyranoside.
The target of data set [3] is T1, Type 1 fimbrin D-mannose specific adhesin (Escherichia coli K-12, UniProt P08191). Description: Displacement of TM-PAA polymer from Escherichia coli FimH-CRD-Th-6-His expressed in Escherichia coli HM125 by competitive binding assay.
In a further data set the test system is HepG2. In words: Cytotoxicity against human HepG2 cells at 1 to 10 uM after 24 hrs by CellTiter 96 aqueous one solution cell proliferation assay. The format is cell-based. Conditions: hepg2, 24 h.
Data set [4] has as its target Type 1 fimbrin D-mannose specific adhesin (Escherichia coli K-12) (UniProt P08191). In words: Displacement of TM-PAA polymer from Escherichia coli FimH-CRD-Th-6-His expressed in Escherichia coli HM125 at <1 uM by competitive binding assay.
Data set [5] shares this target. Description: Inhibition of Escherichia coli FimH relative to methyl alpha-D-mannopyranoside.
Data set [6] concerns the target T1, Type 1 fimbrin D-mannose specific adhesin. Description: Binding affinity to Escherichia coli FimH.
Data set [7] deals with Type 1 fimbrin D-mannose specific adhesin (Escherichia coli K-12) (UniProt P08191). In words: Inhibition of Escherichia coli FimH relative to heptyl alpha-D-mannopyranoside.

SMILES strings stand for the structures. The source made the active and inactive calls. The calls are words filed in the database; no cut-off is given here.

T1 sequence (P08191 whole entry): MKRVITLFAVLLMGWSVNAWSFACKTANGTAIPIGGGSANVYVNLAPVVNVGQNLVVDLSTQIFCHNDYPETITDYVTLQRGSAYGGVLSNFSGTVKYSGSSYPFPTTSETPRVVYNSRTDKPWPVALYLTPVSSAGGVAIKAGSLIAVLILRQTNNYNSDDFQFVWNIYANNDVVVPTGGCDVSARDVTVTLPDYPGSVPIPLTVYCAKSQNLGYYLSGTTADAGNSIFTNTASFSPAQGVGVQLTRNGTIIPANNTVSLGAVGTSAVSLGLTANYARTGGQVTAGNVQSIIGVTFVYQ
Type 1 fimbrin D-mannose specific adhesin (Escherichia coli K-12), sequence (P08191 whole entry): as above

For `COC(=O)c1ccc2ccc(OCC(COc3ccc4ccc(OC)cc4c3)O[C@H]3O[C@H](CO)[C@@H](O)[C@H](O)[C@@H]3O)cc2c1` (some centres not stated), the solubility entry in data set [1] is “soluble”. In data set [2], the Ratio was found to be 0.28. Further, the IC50 (in general, the concentration that gives 50% inhibition) in data set [3] was 212 nM. Moreover, in the data set on HepG2, the Activity result is on record as “Non-toxic”.

For the compound `COc1ccc2ccc(OCC(COc3ccc4ccc(C(=O)O)cc4c3)O[C@H]3O[C@H](CO)[C@@H](O)[C@H](O)[C@@H]3O)cc2c1` (some centres not stated), the solubility result in data set [1] was “soluble”. The Ratio in data set [2] stood at 0.37. The IC50 in data set [3] was 158 nM. For the same compound, the Activity result in the data set on HepG2 was “Non-toxic”.

Consider `COc1ccc2ccc(OCC(CO[C@H]3O[C@H](CO)[C@@H](O)[C@H](O)[C@@H]3O)Oc3ccc4ccc(OC)cc4c3)cc2c1` (some centres not stated), for which the IC50 in data set [3] came to 875 nM. Moreover, in the data set with HepG2, the Activity result is “Non-toxic”.

On to `O=C(Cc1ccccc1)NCC(CNC(=O)Cc1ccccc1)O[C@H]1O[C@H](CO)[C@@H](O)[C@H](O)[C@@H]1O`, for which, in data set [4], the inhibition result is “inactive”.

For `O=[N+]([O-])c1ccc(OCC(CO[C@H]2O[C@H](CO)[C@@H](O)[C@H](O)[C@@H]2O)Oc2ccc([N+](=O)[O-])cc2)cc1` (some centres not stated), the Activity entry in the data set on HepG2 was “Non-toxic”.

As for `CCOc1c(Nc2ccc(O[C@H]3O[C@H](CO)[C@@H](O)[C@H](O)[C@@H]3O)c(Cl)c2)c(=O)c1=O`, the Ratio in data set [5] amounted to 6900.

In the case of `O=C(NCC(CNC(=O)c1ccc[nH]1)O[C@H]1O[C@H](CO)[C@@H](O)[C@H](O)[C@@H]1O)c1ccc[nH]1`, in data set [3], the IC50 amounted to 607 nM.

Regarding `OC[C@H]1OC(O)[C@@H](O)[C@@H](O)[C@@H]1O` (stereo partly drawn) [D-MANNOSE], the Kd (commonly the equilibrium constant for the complex coming apart) in data set [6] worked out at 2300 nM.

Consider `OC[C@H]1O[C@H](OCC(COc2cccc3ccccc23)Oc2cccc3ccccc23)[C@@H](O)[C@@H](O)[C@@H]1O` (some centres not stated), for which the inhibition entry in data set [4] is “inactive”. The Activity result in the data set with HepG2 was “Non-toxic”.

In data set [3], `O=C(NCC(CNC(=O)c1ccc2ccccc2c1)O[C@H]1O[C@H](CO)[C@@H](O)[C@H](O)[C@@H]1O)c1ccc2ccccc2c1` gave an IC50 of 763 nM.

For the compound `O=C(Cc1ccc([N+](=O)[O-])cc1)NCC(CNC(=O)Cc1ccc([N+](=O)[O-])cc1)O[C@H]1O[C@H](CO)[C@@H](O)[C@H](O)[C@@H]1O`, the inhibition result in data set [4] was “inactive”.

In the case of `O=C(O)c1ccc(OCC(COc2cccc3ccccc23)O[C@H]2O[C@H](CO)[C@@H](O)[C@H](O)[C@@H]2O)cc1` (some centres not stated), the solubility result in data set [1] is “soluble”. Also, in data set [2], the Ratio turned out to be 0.17. The same compound showed an IC50 in data set [3] of 346 nM. In the data set with HepG2, the Activity result is recorded as “Non-toxic”.

For the compound `COc1ccc2ccc(OCC(COc3ccc4ccc(OC)cc4c3)O[C@H]3O[C@H](CO)[C@@H](O)[C@H](O)[C@@H]3O)cc2c1`, the IC50 in data set [3] came out at 593 nM. For the same compound, the Activity entry with HepG2 was “Non-toxic”.

For the compound `O=[N+]([O-])c1ccc(CCO[C@H]2O[C@H](CO)[C@@H](O)[C@H](O)[C@@H]2O)cc1`, the Ratio in data set [5] worked out at 85.

With `OC[C@H]1O[C@H](OC(COc2ccccc2)COc2ccccc2)[C@@H](O)[C@@H](O)[C@@H]1O`, the Activity result in the data set with HepG2 is reported as “Non-toxic”.

For the compound `OC[C@H]1O[C@H](OC(COc2cccc3ccccc23)COc2cccc3ccccc23)[C@@H](O)[C@@H](O)[C@@H]1O`, in the data set on HepG2, the Activity result was “Non-toxic”.

Take `COc1ccc(OC(COc2ccc(O)cc2)CO[C@H]2O[C@H](CO)[C@@H](O)[C@H](O)[C@@H]2O)cc1` (some centres not stated): in data set [2], the Ratio was found to be 0.28. The IC50 in data set [3] came to 208 nM. The Activity entry in the data set on HepG2 is given as “Non-toxic”.

Regarding `CCCCCCCO[C@H]1O[C@H](CO)[C@@H](O)[C@H](O)[C@@H]1O`, the IC50 in data set [3] was 58.9 nM. In other words, the double-digit nanomolar range.

With `O=C(O)Cc1ccc(OCC(COc2cccc3ccccc23)O[C@H]2O[C@H](CO)[C@@H](O)[C@H](O)[C@@H]2O)cc1` (some centres not stated), in data set [1], the solubility result is listed as “soluble”. The Ratio in data set [2] was 0.25. For the same compound, the IC50 in data set [3] is 232 nM. For the same compound, in the data set with HepG2, the Activity entry is recorded as “Non-toxic”.

Consider `OC[C@H]1O[C@H](OC(COc2ccc3ccccc3c2)COc2ccc3ccccc3c2)[C@@H](O)[C@@H](O)[C@@H]1O`, for which, in data set [4], the inhibition entry was “inactive”. In the data set with HepG2, the Activity entry is listed as “Non-toxic”.

Take `O=[N+]([O-])c1ccc(OCC(COc2ccc([N+](=O)[O-])cc2)O[C@H]2O[C@H](CO)[C@@H](O)[C@H](O)[C@@H]2O)cc1`: in data set [3], the half-maximal inhibitory concentration (IC50) came out at 804 nM. Moreover, in the data set on HepG2, the Activity entry was “Non-toxic”.

The compound `OCC#Cc1ccc(O[C@H]2O[C@H](CO)[C@@H](O)[C@H](O)[C@@H]2O)cc1` displayed a Kd in data set [6] of 0.65 nM. For the same compound, the results for the Ratio in data set [7] and in data set [5] were 7.7 and 3380, respectively.

In turn, `N#Cc1ccc(C(=O)NCC(CNC(=O)c2ccc(C#N)cc2)O[C@H]2O[C@H](CO)[C@@H](O)[C@H](O)[C@@H]2O)cc1` had an IC50 in data set [3] of 978 nM.

With `OC[C@H]1O[C@H](OCC(COc2ccc3ccccc3c2)Oc2ccc3ccccc3c2)[C@@H](O)[C@@H](O)[C@@H]1O` (some centres not stated), the inhibition result in data set [4] was “inactive”. The Activity result in the data set on HepG2 is “Non-toxic”.

Take `O=[N+]([O-])c1ccc(O[C@H]2O[C@H](CO)[C@@H](O)[C@H](O)[C@@H]2O)c(Cl)c1`: in data set [5], the Ratio is 717.

On to `COc1ccc(OCC(COc2ccc(OC)cc2)O[C@H]2O[C@H](CO)[C@@H](O)[C@H](O)[C@@H]2O)cc1`, for which, in data set [4], the inhibition entry was “inactive”. Also, in the data set with HepG2, the Activity entry was “Non-toxic”.

Regarding `CCOCC(COc1ccc2ccccc2c1)O[C@H]1O[C@H](CO)[C@@H](O)[C@H](O)[C@@H]1O` (some centres not stated), the Ratio in data set [2] worked out at 0.08. The compound further came in with an IC50 in data set [3] of 746 nM. Besides, the Activity entry in the data set on HepG2 is reported as “Non-toxic”.
